Results taken from EP1963277B1, “FLUORINATED COMPOUNDS” (priority 2005, dated 2007).
Read-outs that look alike come from different tables or passages of the source.

Tests used:
Assay type in all cases: in vivo
FCA-treated rats [1] = test: Freund's Complete Adjuvant (FCA) model, mechanical allodynia (modified Randall-Selitto method); conditions: p.o.
Protocol: (§1) Administration of FCA to the hind paw of an animal induces the formation of a localized edema and has been widely used as a model of chronic inflammatory pain. 100 µl of FCA is injected subcutaneously into the dorsal aspect of the left hind paw of the rats. The edema appears within 2 h reaches a peak by 6h and lasts for about 7 days. The effects of compounds on mechanical allodynia and paw volume were studied 2 days after FCA administration.
The effect of the compounds in alleviating mechanical allodynia was assessed in the FCA-treated rats using the modified Randall-Selitto method (Analgesy-Meter, Ugo Basile, Italy). The animal's paw is placed on a small plinth under a cone-shaped pusher. Increasing force is applied to the paw by depressing a pedal until vocalization or withdrawal of the paw occurs. The minimum force required to elicit this vocalization/withdrawal is the paw pressure threshold. The cut-off was set at 150 g.
After the initial basal (control) readings were taken, the test compound (60 mg/kg)/vehicle was administered orally in a volume of 10 ml/kg. The paw pressure thresholds were measured 30, 60 and 180 min post administration. […] Some of the compounds were effective even at 60 and 180 min post administration.

rats = test: Persistent Inflammatory Pain (Formalin Model); conditions: Rattus norvegicus, formalin test, 30 min pretreatment; for inhibition at 30 mg/kg: ip, i.p.; for inhibition at 60 mg/kg: po, p.o.
Protocol: The formalin test is a chemically-induced tonic pain model in which injection of formalin into a hind paw elicits a biphasic nociceptive behavior. The second phase of formalin response is predominantly due to a central sensitization phenomenon. Most clinically used drugs against neuropathic pain arc active on this second phase of formalin response. Formalin test is accepted as a valid model of persistent clinical pain.
The test was done by pretreating the rats with the test compound and 30 min later (pretreatment time), 50 µl of 2.5% formalin was injected into the right hind paw of the animal. The number of paw licking and flinching episodes were scored for 60 min post-formalin injection.
The compounds were administered either intraperitoneally (30 mg/kg) or orally (60 mg/kg).

Male, CD-1 mice = test: Maximal Electroshock Assay (mouse); conditions: for ED50: oral pretreatment, range in parentheses
Protocol: Male, CD-1 mice (20-30g body weight) were orally pretreated with test compound or vehicle control, and either at 1h or 4h post dose a maximal electroshock (45mA amplitude, 0.2s duration, 60Hz) was applied by corneal electrodes. Protection was defined by the absence of a tonic extensor seizure in the animal within 20s of application of the electrical stimulus, which typically occurred in all vehicle pretreated animals. Animals received only one electroshock and so separate animals were used for the 1h and 4h timepoints. All drugs were administered in multiple doses.

SNI rats [2] = test: Spared Nerve Injury (SNI) model, cold allodynia (acetone test); conditions: for duration (s) of nociceptive response, Post Admin 30 min: *** P<0.001 vs Pre-Admin.; for duration (s) of nociceptive response, Pre-Admin. 0 min: baseline before administration
Protocol: (§2) The compounds were tested for their efficacy in reducing mechanical allodynia and cold allodynia in the spared nerve injury (SNI) model of chronic neuropathic pain. In this model, the left sciatic nerve of the rat is exposed under anesthesia. Two of the branches of the sciatic nerve viz. the common peroneal and tibial nerve are ligated and sectioned. The third branch (sural nerve) is left intact. The animals were allowed a post-operative recovery period of 7 days before they were subjected to any test.
Cold allodynia was assessed by using the acetone test. In this model, 25 µl of acetone is sprayed on to the plantar surface of the hind paw. Evaporation of acetone causes cooling of the skin. The cold stimulus sets up nociceptive responses from the injured paw as evidenced by paw lifting, paw licking and grooming. The duration of the nociceptive responses is noted.
Testing of compounds was done after 21 days post-operatively. After initial basal readings were taken, the test compound or the vehicle was administered (10 ml/kg) either intraperitoneally (30 mg/kg) or orally (60 mg/kg). The readings were taken 30 min after the administration.

FCA-treated rats [3] = test: Freund's Complete Adjuvant (FCA) model, paw edema/volume (plethysmometer); conditions: p.o.
Protocol: as §1
The edema/volume of the paw is a measure of inflammation induced by FCA. This was measured by using a plethysmometer (Ugo Basile, Italy). In this, the paw of the rat is immersed in a reservoir of water and the volume of water displaced indicates the paw volume.
After the initial basal (control) readings were taken, the test compound (60 mg/kg)/vehicle was administered orally in a volume of 10 ml/kg.

[4] = test system: Male, Sprague-Dawley rats; test: Maximal Electroshock Assay (rat); conditions: for ED50: oral pretreatment, range in parentheses
Protocol: Male, Sprague-Dawley rats (approx. 100g body weight) were prescreened for tonic seizure susceptibility prior to drug testing. […] Protection was defined by the absence of a tonic extensor seizure in the animal within 20s of application of the electrical stimulus, which typically occurred in all vehicle pretreated animals. Animals received only one electroshock on the drug test day and so separate animals were used for the 0.5h and 4h timepoints. All drugs were administered in multiple doses.

SNI rats [5] = test: Spared Nerve Injury (SNI) model, mechanical allodynia (Dynamic Plantar Aesthesiometer); conditions: for withdrawal threshold, Post Admin 30 min / withdrawal threshold, Post Admin 60 min / withdrawal threshold, Post Admin 180 min: *** P<0.001 vs Pre-Admin.; for withdrawal threshold, Pre-Admin. 0 min: baseline before administration
Protocol: as §2
The presence of mechanical allodynia was assessed using the Dynamic Plantar Aesthesiometer (Ugo Basile, Italy) which is a modified version of the Von Frey Hair test. In this, a test filament is positioned below the animal's hind paw and the unit is activated which causes the filament to move up and touch the plantar surface of the hind paw. Increasing force is applied to the paw via the filament. […] The cut-off force is set at 50 g. The tests were done on both the non-injured (control) and the injured (SNI) paw.
Testing of compounds was done after 21 days post-operatively. After initial basal readings were taken, the test compound or the vehicle was administered (10 ml/kg) either intraperitoneally (30 mg/kg) or orally (60 mg/kg). The readings were taken again 30, 60 and 180 min after the compound/vehicle administration.

[6] = 60 mg/kg, ** P<0.01, *** P<0.001 vs Pre-Admin.
[7] = group later given 60 mg/kg, baseline before administration
[8] = read-out: MES oral ED50 4h, mouse, electroshock 4h post dose
[9] = group later given 30 mg/kg, i.p.
[10] = group later given 60 mg/kg, p.o.
[11] = read-out: MES oral ED50 0.5h, rat, electroshock 0.5h post dose
[12] = read-out: MES oral ED50 4h, rat, electroshock 4h post dose

CC(=O)N[C@H](COC(F)F)C(=O)NCc1ccc(Cl)cc1 [Compound 20]
paw withdrawal threshold (g), Post Admin 30 min (FCA-treated rats [1]; [6]): 67.1 ± 9.9*** g | paw withdrawal threshold (g), Post Admin 60 min (FCA-treated rats [1]; [6]): 60.4 ± 5.8*** g | paw withdrawal threshold (g), Post Admin 180 min (FCA-treated rats [1]; [6]): 64.2 ± 5.6*** g | paw withdrawal threshold (g), Pre-Admin. 0 min (FCA-treated rats [1]; [7]): 23.3 ± 2.1 g | inhibition at 30 mg/kg (rats; *** P<0.001, read-out: %Inhibition Phase I): 75.3 ± 9.3% | inhibition at 30 mg/kg (rats; *** P<0.001, read-out: %Inhibition Phase II): 82.3 ± 9.7% | inhibition at 60 mg/kg (rats; ** P<0.01, *** P<0.001, read-out: %Inhibition Phase II): 57.6 ± 7% | inhibition at 60 mg/kg (rats; read-out: %Inhibition Phase I): 9.6 ± 8.1% | duration of action (Male, CD-1 mice; mouse MES, judged by similar potency at 1h and 4h pretreatment timepoints): longer than Lacosamide | Ratio ED50 4h vs. 1h (Male, CD-1 mice; mouse, oral): 2.1 | shift in ED50 for 1 vs. 4h (Male, CD-1 mice; mouse, oral): 1 to 3.5 fold | ED50 (Male, CD-1 mice; mouse, electroshock 1h post dose, blockade of tonic extensor seizure, read-out: MES oral ED50 1h): 8.7 mg/kg | ED50 (Male, CD-1 mice; [8]): 17.9 mg/kg | duration (s) of nociceptive response, Post Admin 30 min (SNI rats [2]; 30 mg/kg, i.p.): 3.4 ± 2.1*** s | duration (s) of nociceptive response, Post Admin 30 min (SNI rats [2]; 60 mg/kg, p.o.): 16.6 ± 6.3*** s | duration (s) of nociceptive response, Pre-Admin. 0 min (SNI rats [2]; [9]): 45.6 ± 6.9 s | duration (s) of nociceptive response, Pre-Admin. 0 min (SNI rats [2]; [10]): 33.3 ± 4.3 s | paw volume (ml), Post Admin 30 min (FCA-treated rats [3]; 60 mg/kg): 2.3 ± 0.1 mL | paw volume (ml), Post Admin 60 min (FCA-treated rats [3]; 60 mg/kg): 2.3 ± 0.1 mL | paw volume (ml), Pre-Admin. 0 min (FCA-treated rats [3]; [7]): 2.3 ± 0.1 mL | duration of action ([4]; rat MES, judged by similar potency at 0.5h and 4h pretreatment timepoints): longer than Lacosamide | Ratio ED50 4h vs. 0.5h ([4]; rat, oral): 1.2 | shift in ED50 for 0.5 vs. 4h ([4]; rat, oral): 1 to 1.4 fold | ED50 [4, 11]: 1.7 mg/kg | ED50 [4, 12]: 2 mg/kg | withdrawal threshold, Post Admin 30 min (SNI rats [5]; 30 mg/kg, i.p.): 24.9 ± 4.4*** g | withdrawal threshold, Post Admin 60 min (SNI rats [5]; 30 mg/kg, i.p.): 23.3 ± 3.2*** g | withdrawal threshold, Post Admin 180 min (SNI rats [5]; 30 mg/kg, i.p.): 26.3 ± 2.5*** g | withdrawal threshold, Post Admin 30 min (SNI rats [5]; 60 mg/kg, p.o.): 19.3 ± 1.8*** g | withdrawal threshold, Post Admin 60 min (SNI rats [5]; 60 mg/kg, p.o.): 20.3 ± 1.6*** g | withdrawal threshold, Post Admin 180 min (SNI rats [5]; 60 mg/kg, p.o.): 14.7 ± 0.9*** g | withdrawal threshold, Pre-Admin. 0 min (SNI rats [5]; [9]): 12.4 ± 1.3 g | withdrawal threshold, Pre-Admin. 0 min (SNI rats [5]; [10]): 7.5 ± 0.5 g

COC[C@@H](NC(C)=O)C(=O)NCc1ccccc1 [Lacosamide, R-2-acetamido-N-benzyl-3-methoxy-propanamide, reference compound]
ED50 (Male, CD-1 mice; [8]): 32 mg/kg | ED50 [4, 11]: 1.8 mg/kg | ED50 [4, 12]: 8.3 mg/kg
